From EPA's ToxRefDB 2 come the findings set out here.

Broadly, the LOAEL is the lowest dose or exposure tested at which an adverse effect was seen. By NOAEL is commonly meant the highest dose or exposure tested at which no adverse effect was seen.

Data set [1] has as its system mouse. Conditions: Subchronic oral toxicity in rodents, b6c3f1, Gavage/Intubation, dose end: 3 month, group: systemic.
For data set [2], the system named is rat. Conditions: Subchronic oral toxicity in rodents, fischer, Gavage/Intubation, dose end: 3 month, group: systemic.
The test system of data set [3] is mouse. Conditions: Carcinogenicity; cd1; Oral; Feed; dose end: 24 month; group: systemic; systemic / in life observation / body weight / body weight + systemic / pathology microscopic / kidney / basophilia + systemic / pathology ….
Data set [4] has as its system rat. To be noted: Multigenerational reproductive toxicity study, sprague dawley, Oral, Feed, dose end: 2 generation.
Data set [5] has as its system rat. Conditions: Subchronic oral toxicity in rodents, sprague dawley, Feed, dose end: 3 month, group: systemic, systemic / clinical chemistry / glucose / glucose + systemic / clinical chemistry / phosphorus / phosphorus + systemic / clinical chemistry….
For data set [6], the system named is rat. Conditions: Prenatal developmental toxicity study, sprague dawley, Oral, Gavage/Intubation, dose end: 19 GD.
In data set [7] the test system is rat. To be noted: Combined chronic toxicity/carcinogenicity, sprague dawley, Oral, Feed, dose end: 24 month, group: systemic.
Data set [8] concerns mouse. To be noted: Subchronic oral toxicity in rodents, swiss albino, Gavage/Intubation, dose end: 14 day, group: systemic.
The subject of data set [9] is rat. Conditions: Multigenerational reproductive toxicity study, sprague dawley, Oral, Feed, dose end: 2 generation. The source holds these as a separate data set.
Where [10] appears, read: systemic / in life observation / body weight / body weight + systemic / in life observation / body weight / body weight gain + systemic / in….
Setting [11] is: systemic / clinical chemistry / alanine aminotransferase (alt/sgpt) / alanine aminotransferase (alt/sgpt) + systemic / clinical chemistry / ….
Where [12] appears, read: systemic / pathology microscopic / liver / hyperplasia + systemic / pathology microscopic / liver / inflammation + systemic / hematology / ….
The mark [13] stands for this setting: group: offspring, systemic / in life observation / body weight / offspring (pup) weight + systemic / in life observation / body weight / offspring (pup) ….
The mark [14] stands for this setting: group: parental, systemic / in life observation / body weight / body weight + systemic / in life observation / clinical signs / soft stools.
[15] abbreviates: group: parental, systemic / in life observation / body weight / body weight + systemic / in life observation / clinical signs / soft stools + systemic / in ….
Where [16] appears, read: group: developmental, developmental / developmental malformation / bone / unossified + systemic / in life observation / body weight / fetal weight.
[17] abbreviates: group: maternal, systemic / in life observation / body weight / body weight gain + systemic / in life observation / clinical signs / defecation (diarrhea) + ….
The mark [18] stands for this setting: systemic / pathology microscopic / stomach / inflammation.
Where [19] appears, read: systemic / pathology microscopic / stomach / inflammation + systemic / in life observation / body weight / body weight + systemic / in life ….
Setting [20] is: systemic / hematology / sulphemoglobin / sulphemoglobin.
Where [21] appears, read: systemic / hematology / sulphemoglobin / sulphemoglobin + systemic / hematology / heinz body / heinz body + systemic / hematology / ….
The mark [22] stands for this setting: group: offspring, systemic / in life observation / body weight / offspring (pup) weight.
Where [23] appears, read: group: parental, systemic / hematology / lymphocyte / lymphocyte + systemic / hematology / platelet / platelet + systemic / organ weight / spleen / nos + ….

Where only a bound is given, the exact number is not on record here.

With `C=CCc1ccc(OC)cc1` [Estragole], in the data set on mouse [1] (setting [10]), the LOAEL was > 600 mg/kg/day, the NEL amounted to 37.5 mg/kg/day and the no-observed-adverse-effect level (NOAEL) is ≥ 600 mg/kg/day. Further, the LEL in the data set on mouse [1] (systemic / in life observation / body weight / body weight + systemic / in life observation / body weight / body weight gain + systemic / …) stood at 75 mg/kg/day. In addition, in the data set with rat [2] (setting [11]), the LOAEL was > 600 mg/kg/day and the no observed adverse effect level (NOAEL) was ≥ 600 mg/kg/day. For the same molecule, in the data set with rat [2] (setting [12]), the LEL was 37.5 mg/kg/day and the NEL is < 37.5 mg/kg/day.

As for `O=C(O)CNCP(=O)(O)O` [Glyphosate], the LEL in the data set with mouse [3] was determined as 4500 mg/kg/day; in the data set with rat [4] (setting [13]) it was 1500 mg/kg/day; in the data set on rat [4] (setting [15]) it was 1500 mg/kg/day; with rat [5], 63 mg/kg/day; with rat [6] (setting [16]) it was 3500 mg/kg/day; in the data set with rat [6] (setting [17]), 3500 mg/kg/day. Further, the LEL in the data set with rat [7] (setting [18]) worked out at 457 mg/kg/day. For the same molecule, the LOAEL in the data set with mouse [3] was 4500 mg/kg/day; in the data set with rat [4] (setting [13]) it was 1500 mg/kg/day; in the data set with rat [4] (setting [15]) it was 1500 mg/kg/day; with rat [5], > 1270 mg/kg/day; in the data set on rat [6] (setting [16]) it was 3500 mg/kg/day; in the data set on rat [6] (setting [17]), 3500 mg/kg/day. Also, in the data set on rat [7] (setting [18]), the LOAEL amounted to 457 mg/kg/day. Also, the NEL is 750 mg/kg/day in the data set with mouse [3]; 500 mg/kg/day with rat [4] (setting [13]); 500 mg/kg/day in the data set on rat [4] (setting [14]); < 63 mg/kg/day with rat [5]; 1000 mg/kg/day with rat [6] (setting [16]); 1000 mg/kg/day with rat [6] (setting [17]). Besides, the NEL in the data set with rat [7] (setting [19]) was 113 mg/kg/day. Further, the NOAEL with mouse [3] is 750 mg/kg/day; in the data set with rat [4] (setting [13]) it was 500 mg/kg/day; with rat [4] (setting [14]) it was 500 mg/kg/day; in the data set with rat [5], ≥ 1270 mg/kg/day; with rat [6] (setting [16]), 1000 mg/kg/day; in the data set on rat [6] (setting [17]), 1000 mg/kg/day. In addition, the NOAEL in the data set with rat [7] (setting [19]) worked out at 113 mg/kg/day.

In the data set on mouse [8] (setting [20]), `O=C(NC(=O)c1c(F)cccc1F)Nc1ccc(Cl)cc1` [Diflubenzuron] registered an LEL of 200 mg/kg/day and an LOAEL of 200 mg/kg/day. In the data set on mouse [8] (setting [21]), the NEL stood at 40 mg/kg/day and the NOAEL worked out at 40 mg/kg/day. Besides, in the data set with rat [9] (setting [22]), the LEL is 3800 mg/kg/day, the LOAEL was determined as 3800 mg/kg/day, the NEL turned out to be 360 mg/kg/day and the NOAEL amounted to 360 mg/kg/day. Also, in the data set with rat [9] (setting [23]), the LEL turned out to be 36 mg/kg/day, the LOAEL turned out to be 36 mg/kg/day, the NEL is < 36 mg/kg/day and the NOAEL was < 36 mg/kg/day.
